Patent US7785388B2, “Method for producing stabilized nitrogen compositions” (priority 1999, dated 2010)
Like-named read-outs stand apart in the source and are kept apart here.

Legend:
[1] = Aerobic dissolution activity, visual observation in open glasses of water; format: physicochemical; set-up: White grainy deposit / White rhombic froth / Reactivity/floating / Calcium settlements / Meniscus (white): scale not given here; conditions: for Calcium settlements / Evaporation / Meniscus (white) / Particles dissolved / Reactivity/floating / White grainy deposit / White rhombic froth: open air; for pH: open air water solutions
Method: Calcium cyanamide fines, homogeneous calcium cyanamide granules, heterogeneous calcium cyanamide/urea granules, calcium cyanamide granules, and urea were added to equal amounts of water in separate glasses and observed over time. Table 12 is a summary of those visual observations and highlights the vast differences between the aerobic dissolution properties and the chemical reactions over time of open air water solutions of CaNCN granules (1), CaNCN fines (2), homogeneous CaNCN/urea granules formed by melting together CaNCN fines and urea (3), heterogeneous CaNCN/urea granules with a calcium cyanamide core and a urea shell (4), and urea (5).

[2] = test system: microscopic eelworms (nematodes); conditions: 100 lbs/acre, hydrolyzed + urease, In vitro; cited from earlier work
arginine production = conditions: cited from earlier work; for % Relative Arginine Increase: published data, CaNO3 as baseline
[3] = test system: Meloidogyne chitwoodi J2 larvae; test: Meloidogyne chitwoodi J2 larvae killed after application in irrigation water; format: in vivo
Text: This example was done under consultation with Washington State University. Agricultural plots were identified in Washington State.

[4] = test system: microscopic eelworms (nematodes); test: Inventor Study, WSU: nematode reduction in vitro
Text: For comparison, results of some prior art studies using dry CaNCN application, liquid molecular cyanamide applications, and the results of an experiment using dicyandiamide are also included in Table 10.

Coliform = Coliform numbers in parlor wash manure with 0.2% CaNCN; format: cell-based; conditions: below about 0.2% by weight in manure, within 24-120 hrs
lettuce seed = test: Seed emergence in band drenched lettuce and broccoli plots; format: in vivo; conditions: aqueous composition of calcium cyanamide alone as a drench
Method: Yet another test was conducted on lettuce and broccoli plots. […] The rates expressed relevant to strawberry bands were 8 lbs and 16 lbs of nitrogen per acre. […] However, where the drench was allowed to dry for several days before sprinkling, the lettuce seed emergence was reduced 100%. […]

[5] = test system: microscopic eelworms (nematodes); conditions: not hydrolyzed, cited from earlier work
[6] = test system: microscopic eelworms (nematodes); conditions: 600-1200 lbs/acre, not hydrolyzed, Field Soil, dry; cited from earlier work
Phytophthora = conditions: cited from earlier work
Verticillium = conditions: cited from earlier work
weeds = conditions: cited from earlier work
[7] = test system: microscopic soil eelworms (nematodes); test: Strawberry bed drip irrigation test against methyl bromide, soil eelworms at 12 inch depth; format: in vivo; conditions: methyl bromide in pre-wetted beds
Text: As a result of the before mentioned strawberry bed weed responses, the 70/30 composition was compared directly with methyl bromide (MB) during the California Strawberry Commission's annual testing for alternatives to the ozone negative pesticide, which is scheduled to be 70% banned by 2003. Our chosen objective was to replace pre-banded “slow release” nitrogen with stabilized urea/calcium cyanamide compositions at a similar cost per acre and see if we could attain reduction of weeds and diseases similar to methyl bromide.
The urea/calcium cyanamide composition was applied to pre-wetted and preformed beds through drip irrigation tubes, typically 2 of which are laid inside of where two rows of berry plants will be planted on the outside bed edges. Applications of 100 lbs/acre were compared where the calcium cyanamide composition was applied over 1 hour and 2 hour periods to vary the depth and width of its distribution.
Soil samples, taken at a depth of 12″ in bed centers, were sent for analysis by the Commission. […] It is assumed that the pre-wetting of soil required for bed shaping, caused restricted movement of the methyl bromide gas through the soil.

[8] = about 25° C.; cited from earlier work
corn = test: Crop yield after cornfield application; format: in vivo; conditions: nitrogen 160 lbs/acre for ammonia
Text: Nitrate leaching after cornfield applications of 0.5% and 1% heterogeneous calcium cyanamide core/urea shell granules was also followed.

[9] = dry incorporated, 1,000 lbs./acre
[10] = shank injected and tarped, 350 lbs/acre

SMILES | Calcium settlements ([1]; 1 hour) | Evaporation ([1]; 1 hour) | Meniscus (white) ([1]; 1 hour) | Particles dissolved ([1]; 1 hour) | Reactivity/floating ([1]; 1 hour) | White grainy deposit ([1]; 1 hour) | White rhombic froth ([1]; 1 hour) | Calcium settlements ([1]; 24 hours) | Evaporation ([1]; 24 hours) | Meniscus (white) ([1]; 24 hours) | Particles dissolved ([1]; 24 hours) | Reactivity/floating ([1]; 24 hours) | White grainy deposit ([1]; 24 hours) | White rhombic froth ([1]; 24 hours) | Calcium settlements ([1]; 30 days) | Evaporation ([1]; 30 days) | Meniscus (white) ([1]; 30 days) | Particles dissolved ([1]; 30 days) | Reactivity/floating ([1]; 30 days) | White grainy deposit ([1]; 30 days) | other results
NC(N)=O [Urea, urea, reference compound] | 0 | 0 | 0 | 0 | 0 | 0 | 0 | 0 | 0 | 0 | 9 | 0 | 0 | 0 | 0 | 4 | 0 | 10 | 0 | 0 | White rhombic froth ([1]; 30 days): 0; pH [1]: (5)Urea(8); Nematode Reduction [2]: 100%; % Relative Arginine Increase (arginine production): 69%
[Na+].[OH-] [NaOH, sodium hydroxide] | – | – | – | – | – | – | – | – | – | – | – | – | – | – | – | – | – | – | – | – | Final pH ([3]; 35 lbs/acre at 1/2 inch depth): 10.6; J2 nema - % killed ([3]; 35 lbs/acre at 1/2 inch depth): 98.6%; Final pH ([3]; 70 lbs/acre at 1/2 inch depth): 11.4; J2 nema - % killed ([3]; 70 lbs/acre at 1/2 inch depth): 100%; Final pH ([3]; 105 lbs/acre at 1/2 inch depth): 11.7; J2 nema - % killed ([3]; 105 lbs/acre at 1/2 inch depth): 100%; Nematode Reduction ([4]; 35 lbs/acre in tap water, pH = 10, In vitro): 99%
O=[N+]([O-])[O-].O=[N+]([O-])[O-].[Ca+2] [CaNO3-baseline, calcium nitrate] | – | – | – | – | – | – | – | – | – | – | – | – | – | – | – | – | – | – | – | – | % Relative Arginine Increase (arginine production): 0%
N#CN=C(N)N [Dicyan-Diamide, dicyandiamide, reference compound] | – | – | – | – | – | – | – | – | – | – | – | – | – | – | – | – | – | – | – | – | Nematode Reduction ([4]; 102 lbs/acre in distilled water, pH = 8, In vitro): 0%
[Ca+2].[N-]=C=[N-] [CaNCN, calcium cyanamide] | – | – | – | – | – | – | – | – | – | – | – | – | – | – | – | – | – | – | – | – | reductions in coliform bacteria (Coliform): 99.999%; Nematode Reduction ([4]; 9 lbs/acre in distilled water, hydrolyzed, pH = 12.6, In vitro): 100%; Nematode Reduction ([4]; 29 lbs/acre in tap water, hydrolyzed, pH = 10, In vitro): 0%; lettuce seed emergence reductions (lettuce seed; 5 lbs CaNCN N/acre): 85%; lettuce seed emergence reductions (lettuce seed; 10 lbs CaNCN N/acre): 100%; Nematode Reduction ([5]; 1200-2400 equiv. lbs/acre, Wet pot soil): 41-66%; Nematode Reduction ([5]; 1200-2400 lbs/acre, Dry): 4-8%; Nematode Reduction ([5]; 1200-2400 lbs/acre, Wet): 42-54%; Nematode Reduction [6]: 0%; % Relative Arginine Increase (arginine production): 639%; reduction of Phytophthora (Phytophthora; [9]): 0%; reduction of Verticillium (Verticillium; [9]): 8%; weeds reduced (weeds; dry surface incorporation of 1000 lbs/acre followed by 0.5 acre inch sprinkler water): 95%
CBr [methyl bromide, reference compound] | – | – | – | – | – | – | – | – | – | – | – | – | – | – | – | – | – | – | – | – | reduction of microscopic soil eelworms (nematodes) [7]: completely ineffective; reduction of Phytophthora (Phytophthora; [10]): 100%; reduction of Verticillium (Verticillium; [10]): 73%; weeds reduced (weeds; shank injected followed by tarping, 350 lbs/acre): 85%
[Ca+2].[N-]=C=[N-] [(2)Fines, calcium cyanamide] | 0 | 0 | 0 | 2 | 1 | 0 | 0 | 10 | 0 | 8 | 7 | 10 | 0 | 0 | 10 | 5 | 9 | 8 | 10 | 6 | White rhombic froth ([1]; 30 days): 0; pH [1]: (2)Fines(12)
N#CN [H2NCN liquid, molecular cyanamide] | – | – | – | – | – | – | – | – | – | – | – | – | – | – | – | – | – | – | – | – | Nematode Reduction ([5]; 112 lbs/acre, In vitro): 100%; stimulation of arginine production relative to urea (arginine production; in plants): 20 times; acid dissociation constant [8]: about 5.42×10^−11
[Ca+2].[N-]=C=[N-] [(1)Granules, calcium cyanamide] | 0 | 0 | 0 | 0 | 0 | 0 | 0 | 0 | 0 | 0 | 2 | 2 | 0 | 0 | 1 | 5 | 1 | 2 | 4 | 2 | White rhombic froth ([1]; 30 days): 0; pH [1]: (1)Granules(12)
N [Ammonia] | – | – | – | – | – | – | – | – | – | – | – | – | – | – | – | – | – | – | – | – | Yield (corn; Field 1, 120 lbs/acre for granules): 180 bushel/acre; Yield (corn; Field 2, 120 lbs/acre for granule): 177 bushel/acre
